Measurements: PubChem BioAssay (NCI)
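Abbreviation: GI50, concentration required for 50% inhibition of growth. TGI denotes the concentration required for complete inhibition of growth.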

Legend:
Experiment in all cases: NCI tumour cell line growth inhibition, 384-well format
CCRF-CEM leukemia = tested on: CCRF-CEM leukemia
SW-620 colon = tested on: SW-620 colon
TK-10 renal = tested on: TK-10 renal
OVCAR-4 ovarian = tested on: OVCAR-4 ovarian
M14 melanoma = tested on: M14 melanoma
A498 renal = tested on: A498 renal
IGROV1 ovarian = tested on: IGROV1 ovarian
NCI-H460 NSCLC = tested on: NCI-H460 NSCLC
NCI-H322M lung = tested on: NCI-H322M lung
HS 578T breast = tested on: HS 578T breast
LOX IMVI melanoma = tested on: LOX IMVI melanoma
BT-549 breast = tested on: BT-549 breast
T-47D breast = tested on: T-47D breast
RXF 393 renal = tested on: RXF 393 renal
EKVX NSCLC = tested on: EKVX NSCLC
SF-268 CNS = tested on: SF-268 CNS
A549 NSCLC = tested on: A549 NSCLC
SK-OV-3 ovarian = tested on: SK-OV-3 ovarian
DU-145 prostate = tested on: DU-145 prostate
NCI/ADR-RES ovarian = tested on: NCI/ADR-RES ovarian
UACC-62 melanoma = tested on: UACC-62 melanoma
OVCAR-3 ovarian = tested on: OVCAR-3 ovarian
MDA-MB-435 melanoma = tested on: MDA-MB-435 melanoma
786-0 renal = tested on: 786-0 renal
MDA-MB-231 breast = tested on: MDA-MB-231 breast
HL-60(TB) leukemia = tested on: HL-60(TB) leukemia
SF-295 CNS = tested on: SF-295 CNS
HCT-116 colon = tested on: HCT-116 colon
ACHN renal = tested on: ACHN renal
SNB-19 CNS = tested on: SNB-19 CNS
SR leukemia = tested on: SR leukemia
NCI-H522 lung = tested on: NCI-H522 lung
MALME-3M melanoma = tested on: MALME-3M melanoma
OVCAR-8 ovarian = tested on: OVCAR-8 ovarian
UACC-257 melanoma = tested on: UACC-257 melanoma
MCF7 breast = tested on: MCF7 breast
SN12C renal = tested on: SN12C renal
HOP-92 NSCLC = tested on: HOP-92 NSCLC
SK-MEL-2 melanoma = tested on: SK-MEL-2 melanoma
PC-3 prostate = tested on: PC-3 prostate
SK-MEL-28 melanoma = tested on: SK-MEL-28 melanoma
KM12 colon = tested on: KM12 colon
SF-539 CNS = tested on: SF-539 CNS
HCC-2998 colon = tested on: HCC-2998 colon
SK-MEL-5 melanoma = tested on: SK-MEL-5 melanoma
SNB-75 CNS = tested on: SNB-75 CNS
COLO 205 colon = tested on: COLO 205 colon

SMILES: C1=C/COCc2cc(ccc2OCCN2CCCC2)Nc2nccc(n2)-c2cccc(c2)COC/1
- GI50 (CCRF-CEM leukemia): 705 nM
- TGI (CCRF-CEM leukemia): 1790 nM
- GI50 (SW-620 colon): 1520 nM
- TGI (SW-620 colon): 3400 nM
- GI50 (TK-10 renal): 1330 nM
- TGI (TK-10 renal): 3560 nM
- GI50 (OVCAR-4 ovarian): 1760 nM
- TGI (OVCAR-4 ovarian): 3610 nM
- GI50 (M14 melanoma): 1160 nM
- TGI (M14 melanoma): 2390 nM
- GI50 (A498 renal): 829 nM
- TGI (A498 renal): 2850 nM
- GI50 (IGROV1 ovarian): 811 nM
- TGI (IGROV1 ovarian): 2940 nM
- GI50 (NCI-H460 NSCLC): 923 nM
- TGI (NCI-H460 NSCLC): 2220 nM
- GI50 (NCI-H322M lung): 1010 nM
- TGI (NCI-H322M lung): 2470 nM
- GI50 (HS 578T breast): 1360 nM
- TGI (HS 578T breast): 2670 nM
- GI50 (LOX IMVI melanoma): 842 nM
- TGI (LOX IMVI melanoma): 2080 nM
- GI50 (BT-549 breast): 1790 nM
- TGI (BT-549 breast): 3200 nM
- GI50 (T-47D breast): 1270 nM
- TGI (T-47D breast): 2670 nM
- GI50 (RXF 393 renal): 1210 nM
- TGI (RXF 393 renal): 2470 nM
- GI50 (EKVX NSCLC): 1560 nM
- TGI (EKVX NSCLC): 3370 nM
- GI50 (SF-268 CNS): 865 nM
- TGI (SF-268 CNS): 2100 nM
- GI50 (A549 NSCLC): 1460 nM
- TGI (A549 NSCLC): 3490 nM
- GI50 (SK-OV-3 ovarian): 888 nM
- TGI (SK-OV-3 ovarian): 2350 nM
- GI50 (DU-145 prostate): 1060 nM
- TGI (DU-145 prostate): 3430 nM
- GI50 (NCI/ADR-RES ovarian): 1910 nM
- TGI (NCI/ADR-RES ovarian): 3990 nM
- GI50 (UACC-62 melanoma): 685 nM
- TGI (UACC-62 melanoma): 1920 nM
- GI50 (OVCAR-3 ovarian): 988 nM
- TGI (OVCAR-3 ovarian): 2270 nM
- GI50 (MDA-MB-435 melanoma): 1320 nM
- TGI (MDA-MB-435 melanoma): 2730 nM
- GI50 (786-0 renal): 1260 nM
- TGI (786-0 renal): 2620 nM
- GI50 (MDA-MB-231 breast): 1190 nM
- TGI (MDA-MB-231 breast): 2920 nM
- GI50 (HL-60(TB) leukemia): 251 nM
- TGI (HL-60(TB) leukemia): 684 nM
- GI50 (SF-295 CNS): 1810 nM
- TGI (SF-295 CNS): 3310 nM
- GI50 (HCT-116 colon): 692 nM
- TGI (HCT-116 colon): 2360 nM
- GI50 (ACHN renal): 870 nM
- TGI (ACHN renal): 4430 nM
- GI50 (SNB-19 CNS): 2330 nM
- TGI (SNB-19 CNS): 6910 nM
- GI50 (SR leukemia): 152 nM
- TGI (SR leukemia): 303 nM
- GI50 (NCI-H522 lung): 1450 nM
- TGI (NCI-H522 lung): 2780 nM
- GI50 (MALME-3M melanoma): 829 nM
- TGI (MALME-3M melanoma): 2020 nM
- GI50 (OVCAR-8 ovarian): 1290 nM
- TGI (OVCAR-8 ovarian): 2670 nM
- GI50 (UACC-257 melanoma): 649 nM
- TGI (UACC-257 melanoma): 1410 nM
- GI50 (MCF7 breast): 521 nM
- TGI (MCF7 breast): 1780 nM
- GI50 (SN12C renal): 704 nM
- TGI (SN12C renal): 2010 nM
- GI50 (HOP-92 NSCLC): 1600 nM
- TGI (HOP-92 NSCLC): 3910 nM
- GI50 (SK-MEL-2 melanoma): 625 nM
- TGI (SK-MEL-2 melanoma): 1790 nM
- GI50 (PC-3 prostate): 1270 nM
- TGI (PC-3 prostate): 3250 nM
- GI50 (SK-MEL-28 melanoma): 1190 nM
- TGI (SK-MEL-28 melanoma): 2440 nM
- GI50 (KM12 colon): 321 nM
- TGI (KM12 colon): 1330 nM
- GI50 (SF-539 CNS): 1700 nM
- TGI (SF-539 CNS): 3080 nM
- GI50 (HCC-2998 colon): 1350 nM
- TGI (HCC-2998 colon): 2720 nM
- GI50 (SK-MEL-5 melanoma): 1450 nM
- TGI (SK-MEL-5 melanoma): 2770 nM
- GI50 (SNB-75 CNS): 1610 nM
- TGI (SNB-75 CNS): 2980 nM
- GI50 (COLO 205 colon): 1090 nM
- TGI (COLO 205 colon): 2470 nM
